{"source": "patent US11304944B2", "about": "“MetAP2 inhibitors and methods of treating obesity” (SynDevRx, Inc., priority 2013, dated 2022)", "system": "DIO Levin rats", "assay": "Oral Glucose Tolerance Test (OGTT) Day 48 and HOMA-ir in DIO Levin rats", "type": "in vivo", "conditions": "for Blood Glucose, Time 15 / Blood Glucose, Time 30 / Blood Glucose, Time 60 / Blood Glucose, Time 90 / Blood Glucose, Time 120: OGTT; for BW: at OGTT", "procedure": "Animals were weighed every other day. Food consumption was measured weekly. On an approximately weekly basis throughout the study, blood samples were taken for assessment of serum chemistries including glucose and insulin. On Day 48 all rats underwent a 4 hour fasted Oral Glucose Tolerance Test (OGTT). Animals were dosed orally (per os, PO) at 8 mL/kg 25% glucose (2 g/kg). On day 68, gross pathology was performed to determine body composition.", "key": {"[1]": {"conditions": "0.6 mg/kd (so in the source) q4d sc"}, "[2]": {"conditions": "03 mg/kg (so in the source) q4d sc"}}, "data": [{"substance": "poly[HPMA-co-MA-GFLG-N-(trans-4-aminocyclohexyl)carbamoylfumagillol] [Compound 16]", "values": [{"measurement": "HOMA-ir (Insulin Sensitivity) 15 min", "setting": "0.3 mg/kg q4d sc", "value": 40.1}, {"measurement": "HOMA-ir (Insulin Sensitivity) 30 min", "setting": "0.3 mg/kg q4d sc", "value": 10.8}, {"measurement": "HOMA-ir (Insulin Sensitivity) Pre-dose", "setting": "0.3 mg/kg q4d sc", "value": 14.6}, {"measurement": "Blood Glucose pre-OGTT", "setting": "[1]", "value": 121, "unit": "mg/dL"}, {"measurement": "Blood Glucose, Time 15", "setting": "[1]", "value": 150, "unit": "mg/dL"}, {"measurement": "Blood Glucose, Time 30", "setting": "[1]", "value": 148, "unit": "mg/dL"}, {"measurement": "Blood Glucose, Time 60", "setting": "[1]", "value": 149, "unit": "mg/dL"}, {"measurement": "Blood Glucose, Time 90", "setting": "[1]", "value": 143, "unit": "mg/dL"}, {"measurement": "Blood Glucose, Time 120", "setting": "[1]", "value": 150, "unit": "mg/dL"}, {"measurement": "BW", "setting": "[1]", "value": 662, "unit": "g"}, {"measurement": "HOMA-ir (Insulin Sensitivity) 15 min", "setting": "1 mg/kg q4d sc", "value": 50.1}, {"measurement": "HOMA-ir (Insulin Sensitivity) 30 min", "setting": "1 mg/kg q4d sc", "value": 18.1}, {"measurement": "HOMA-ir (Insulin Sensitivity) Pre-dose", "setting": "1 mg/kg q4d sc", "value": 16.4}, {"measurement": "Blood Glucose pre-OGTT", "setting": "[2]", "value": 121, "unit": "mg/dL"}, {"measurement": "Blood Glucose, Time 15", "setting": "[2]", "value": 156, "unit": "mg/dL"}, {"measurement": "Blood Glucose, Time 30", "setting": "[2]", "value": 145, "unit": "mg/dL"}, {"measurement": "Blood Glucose, Time 60", "setting": "[2]", "value": 157, "unit": "mg/dL"}, {"measurement": "Blood Glucose, Time 90", "setting": "[2]", "value": 149, "unit": "mg/dL"}, {"measurement": "Blood Glucose, Time 120", "setting": "[2]", "value": 147, "unit": "mg/dL"}, {"measurement": "BW", "setting": "[2]", "value": 697, "unit": "g"}, {"measurement": "Blood Glucose pre-OGTT", "setting": "3 mg/kg q4d sc", "value": 120, "unit": "mg/dL"}, {"measurement": "HOMA-ir (Insulin Sensitivity) 15 min", "setting": "3 mg/kg q4d sc", "value": 13.7}, {"measurement": "HOMA-ir (Insulin Sensitivity) 30 min", "setting": "3 mg/kg q4d sc", "value": 4.6}, {"measurement": "HOMA-ir (Insulin Sensitivity) Pre-dose", "setting": "3 mg/kg q4d sc", "value": 9.2}, {"measurement": "Blood Glucose, Time 15", "setting": "3 mg/kg q4d sc", "value": 157, "unit": "mg/dL"}, {"measurement": "Blood Glucose, Time 30", "setting": "3 mg/kg q4d sc", "value": 144, "unit": "mg/dL"}, {"measurement": "Blood Glucose, Time 60", "setting": "3 mg/kg q4d sc", "value": 140, "unit": "mg/dL"}, {"measurement": "Blood Glucose, Time 90", "setting": "3 mg/kg q4d sc", "value": 127, "unit": "mg/dL"}, {"measurement": "Blood Glucose, Time 120", "setting": "3 mg/kg q4d sc", "value": 129, "unit": "mg/dL"}, {"measurement": "BW", "setting": "3 mg/kg q4d sc", "value": 582, "unit": "g"}, {"measurement": "Blood Glucose pre-OGTT", "setting": "6 mg, q7d sc", "value": 128, "unit": "mg/dL"}, {"measurement": "HOMA-ir (Insulin Sensitivity) 15 min", "setting": "6 mg, q7d sc", "value": 37.2}, {"measurement": "HOMA-ir (Insulin Sensitivity) 30 min", "setting": "6 mg, q7d sc", "value": 3.5}, {"measurement": "HOMA-ir (Insulin Sensitivity) Pre-dose", "setting": "6 mg, q7d sc", "value": 12.0}, {"measurement": "Blood Glucose, Time 15", "setting": "6 mg, q7d sc", "value": 161, "unit": "mg/dL"}, {"measurement": "Blood Glucose, Time 30", "setting": "6 mg, q7d sc", "value": 141, "unit": "mg/dL"}, {"measurement": "Blood Glucose, Time 60", "setting": "6 mg, q7d sc", "value": 145, "unit": "mg/dL"}, {"measurement": "Blood Glucose, Time 90", "setting": "6 mg, q7d sc", "value": 145, "unit": "mg/dL"}, {"measurement": "Blood Glucose, Time 120", "setting": "6 mg, q7d sc", "value": 138, "unit": "mg/dL"}, {"measurement": "BW", "setting": "6 mg, q7d sc", "value": 604, "unit": "g"}]}]}
